Reference: patent US9120787B2, “HIV replication inhibitors” (priority 2011, dated 2015)

Key:
HIV-1Ba-L [1] = test: Inhibition of virus replication in MAGI-CCR5 cells (β-galactosidase reporter); assay type: cell-based; details: HIV-1Ba-L in MAGI-CCR5 cells; for IC50: Human immunodeficiency virus 1, 48 hours, β-galactosidase reporter expression, read-out: IC50
Protocol: (§1) The anti-viral activity of dihydropyrimidines was shown by inhibition of virus replication in MAGI-CCR5 cells. MAGI-CCR5 cells are derived from HeLa-CD4-LTR-β-galactosidase cells. The cells have been engineered to express high levels of CD4 and CCR5 and contain one copy of the HIV-1 LTR promoter driving expression of the β-galactosidase gene upon HIV-1 Tat transactivation. On the day preceding the assay, the cells were plated at 1.0×10^4 cells per well and maintained at 37° C. and 5% CO2 in a humidified incubator. Total cell count and viability was visually assessed using a hemacytometer and trypan blue exclusion.
Compounds were evaluated at six concentrations (triplicate wells/concentration). On the day of assay setup, compound dilutions were prepared at two-times (2×) the final concentrations. Media was decanted and wells were replenished with 50 μl of 2× compounds, followed by the addition of 50 μl of diluted virus. Identical uninfected assays were prepared for parallel cytotoxicity testing.
Evaluation of Dihydropyrimidines vs. HIV-1Ba-L in MAGI-CCR5 Cells

[2] = Cytotoxicity by MTS staining in uninfected MAGI-CCR5 cells; assay type: cell-based; details: human, read-out: TC50
Protocol: as §1, with “exclusion. Compounds were evaluated at six concentrations (triplicate wells/concentration). On the day of assay setup, compound dilutions were prepared at two-times (2×) the final concentrations. Media was decanted and wells were replenished with 50 μl of 2× compounds, followed by the addition of 50 μl of diluted virus. Identical uninfected assays were prepared for parallel cytotoxicity testing.” for “exclusion.”

HIV-1Ba-L [3] = test: HIV-1Ba-L replication in PBMCs (supernatant RT end-point); details: for TI (TC50/IC50): HIV-1Ba-L in PBMCs; for IC50: Human immunodeficiency virus 1, PBMC, 168 h
Protocol: Evaluation of Dihydropyrimidines vs. HIV-1Ba-L in Peripheral Blood Mononuclear Cells (PBMCs)
Cultures of pooled phytohemagglutinin stimulated peripheral blood mononuclear cells (PBMC) were seeded into a 96-well plate at plating density of 5×10^4 cells/well. Compounds were serially diluted into media in ½-log increments using a high test of […] and […] of each concentration (nine total concentrations). Cells were infected with HIV strains HIV-1Ba-L and NL4-3 at an MOI=0.1. The PBMCs were cultured for seven days in an humidified incubator maintained at 37° C., 5% CO2 atmosphere. At the assay end-point, the supernatant was collected and analyzed for reverse transcriptase activity. For the RT assay, tritiated thymidine triphosphate (3H-TTP, 80 Ci/mmol) was diluted 1:1 dH2O:Ethanol at 1 mCi/ml. Poly rA:oligo dT template:primer was prepared as a stock solution by combining 150 μl poly rA (20 mg/ml) with 0.5 mL oligo dT (20 units/ml) and 5.35 ml sterile dH2O followed by aliquoting (1.0 ml) and storage at −20° C. The RT reaction buffer contained of 125 ml 1.0 M EGTA, 125 ml dH2O, 125 ml 20% Triton X100, 50 ml 1.0 M Tris (pH 7.4), 50 ml 1.0 M DTT, and 40 ml 1.0 M MgCl2. The final reaction mixture was prepared by combining 1 part 3H-TTP, 4 parts dH2O, 2.5 parts poly rA:oligo dT stock and 2.5 parts reaction buffer. To each well, ten microliters of the reaction mixture and 15 μl of virus containing supernatant were added. The plates were incubated at 37° C. for 60 minutes. Following incubation, the reaction volume was spotted onto DE81 filter-mats, washed 5 times for 5 minutes each in a 5% sodium phosphate buffer or 2×SSC. […] were washed 2 times for 1 minute each in distilled water, 2 times for 1 minute each in 70% ethanol, and then dried. Incorporated radioactivity (counts per minute, CPM) was quantified using standard liquid scintillation techniques.

[4] = Cytotoxicity by MTS staining in PBMCs; assay type: cell-based; details: human, peripheral blood mononuclear cells (PBMC), MTS staining, read-out: TC50
Protocol: Cytotoxicity was assessed by MTS staining. At assay end-point, PBMC were stained with the addition of […] of the soluble tetrazolium-based dye MTS to determine cell viability and quantify compound toxicity. The plates were incubated 4 to 6 hrs at 37° C. Following incubation, the activity was assessed by reading absorbance values at 490/650 nm.

Compound	TI (TC50/IC50) (HIV-1Ba-L [1])	IC50 (HIV-1Ba-L [1])	CC50 at 48 h [2]	TI (TC50/IC50) (HIV-1Ba-L [3])	IC50 (HIV-1Ba-L [3])	CC50 at 7 days [4]
CC1=C(c2nc(-c3ccc(C#N)cc3)cs2)C(c2ccc(N(C)C)nc2)NC(=O)N1 (stereo not shown) [Example 91]	A (A = TI (TC50/IC50) ≧ 100.0)	< 1 µM	≥ 100 µM	B (B < 100.0-50.0)	1 to 5 µM	≥ 100 µM
COc1cccc(C2NC(=O)NC(C)=C2c2nc(-c3ccc(C#N)cc3)cs2)n1 (stereo not shown) [Example 28]	B (B < 100.0-50.0)	1 to 5 µM	≥ 100 µM	B (B < 100.0-50.0)	1 to 5 µM	≥ 100 µM
COc1ccc(-c2csc(C3=C(C)NC(=O)NC3c3cc(Br)cs3)n2)cc1 (stereo not shown) [Example 40]	D (D < 10.0)	> 100 µM	≥ 100 µM	D (D < 10.0)	5 to 100 µM	≥ 100 µM
COc1ccc(C2NC(=O)NC(C)=C2c2nc(-c3ccc(C#N)cc3)cs2)cn1 (stereo not shown) [Example 25]	A (A = TI (TC50/IC50) ≧ 100.0)	< 1 µM	≥ 100 µM	A (A = TI (TC50/IC50) ≧100.0)	< 1 µM	≥ 100 µM
COc1ccc(-c2csc(C3=C(C)NC(=O)NC3c3ccc(-c4ccccc4)cc3)n2)cc1 (stereo not shown) [Example 43]	D (D < 10.0)	> 100 µM	≥ 100 µM	D (D < 10.0)	5 to 100 µM	≥ 100 µM
CC1=C(c2nc(-c3cccc(O)c3)cs2)C(c2cccc(O)c2)NC(=O)N1 (stereo not shown) [Example 38]	D (D < 10.0)	5 to 100 µM	50 to 100 µM	D (D < 10.0)	5 to 100 µM	50 to 100 µM
CC1=C(c2nc(-c3ccc(C#N)cc3)cs2)C(c2ccc(Cl)nc2Cl)NC(=O)N1 (stereo not shown) [Example 92]	A (A = TI (TC50/IC50) ≧ 100.0)	< 1 µM	≥ 100 µM	C (C < 50.0-10.0)	1 to 5 µM	50 to 100 µM
CC(C)(C)NC(=O)[C@@H]1CN(Cc2cccnc2)CCN1C[C@@H](O)C[C@@H](Cc1ccccc1)C(=O)N[C@H]1c2ccccc2C[C@H]1O [Indinavir, reference compound]	–	–	–	>21.0	0.048 µM	> 1 µM
CC1=C(c2nc(-c3ccc(C#N)cc3)cs2)C(c2ccc(Oc3ccccc3)nc2)NC(=O)N1 (stereo not shown) [Example 90]	A (A = TI (TC50/IC50) ≧ 100.0)	< 1 µM	≥ 100 µM	C (C < 50.0-10.0)	1 to 5 µM	50 to 100 µM
c1cc(CN2CCCNCCNCCCNCC2)ccc1CN1CCCNCCNCCCNCC1 [AMD 3100, reference compound]	–	> 10 µM	> 10 µM	–	> 10 µM	> 10 µM
CC1=C(c2nc(-c3ccc(C#N)cc3)cs2)C(c2ccncc2F)NC(=O)N1 (stereo not shown) [Example 30]	D (D < 10.0)	> 100 µM	≥ 100 µM	D (D < 10.0)	> 100 µM	≥ 100 µM
COc1cncc(C2NC(=O)NC(C)=C2c2nc(-c3ccc(C#N)cc3)cs2)c1 (stereo not shown) [Example 26]	D (D < 10.0)	5 to 100 µM	≥ 100 µM	C (C < 50.0-10.0)	1 to 5 µM	≥ 100 µM
CC1=C(c2nc(-c3ccc(F)cc3)cs2)C(c2cccc(O)c2)NC(=O)N1 (stereo not shown) [Example 44]	C (C < 50.0 to 10.0)	1 to 5 µM	50 to 100 µM	D (D < 10.0)	5 to 100 µM	50 to 100 µM
CC1=C(c2nc(-c3ccc(C#N)cc3)cs2)C(c2ccc(Oc3ccccc3)cc2)NC(=O)N1 (stereo not shown) [Example 59]	A (A = TI (TC50/IC50) ≧ 100.0)	< 1 µM	≥ 100 µM	A (A = TI (TC50/IC50) ≧100.0)	< 1 µM	≥ 100 µM
CC1=C(c2nc(-c3ccc(Cl)cc3)cs2)C(c2cccc(O)c2)NC(=O)N1 (stereo not shown) [Example 74]	C (C < 50.0 to 10.0)	1 to 5 µM	50 to 100 µM	C (C < 50.0-10.0)	1 to 5 µM	50 to 100 µM
CC1=C(c2nc(-c3ccc(C#N)cc3)cs2)C(c2ccnc(Cl)c2)NC(=O)N1 (stereo not shown) [Example 24]	C (C < 50.0 to 10.0)	5 to 100 µM	≥ 100 µM	–	–	–
COc1ncc(C2NC(=O)NC(C)=C2c2nc(-c3ccc(C#N)cc3)cs2)cn1 (stereo not shown) [Example 31]	C (C < 50.0 to 10.0)	1 to 5 µM	≥ 100 µM	–	–	–
COc1ccc(C2NC(=O)NC(C)=C2c2nc(-c3ccc(C#N)cc3)cs2)cc1O (stereo not shown) [Example 72]	A (A = TI (TC50/IC50) ≧ 100.0)	< 1 µM	≥ 100 µM	–	–	–
CC1=C(c2nc(-c3ccc(C#N)cc3)cs2)C(c2cccs2)NC(=O)N1 (stereo not shown) [Example 14]	C (C < 50.0 to 10.0)	5 to 100 µM	≥ 100 µM	–	–	–
CC1=C(c2nc(-c3ccc(C#N)cc3)cs2)C(c2ccccn2)NC(=O)N1 (stereo not shown) [Example 7]	C (C < 50.0 to 10.0)	1 to 5 µM	≥ 100 µM	–	–	–
CC1=C(c2nc(-c3ccc(C#N)cc3)cs2)C(c2cc3ccccc3s2)NC(=O)N1 (stereo not shown) [Example 12]	C (C < 50.0 to 10.0)	1 to 5 µM	≥ 100 µM	–	–	–
CC1=C(c2nc(-c3cccc(C#N)c3)cs2)C(c2ccc(O)cc2)NC(=O)N1 (stereo not shown) [Example 67]	D (D < 10.0)	5 to 100 µM	50 to 100 µM	–	–	–
COc1ccc(-c2csc(C3=C(C)NC(=O)NC3c3ccccc3)n2)cc1 (stereo not shown) [Example 39]	D (D < 10.0)	5 to 100 µM	≥ 100 µM	–	–	–
COc1ccc(-c2csc(C3=C(C)NC(=O)NC3c3cccc(O)c3)n2)cc1 (stereo not shown) [Example 46]	D (D < 10.0)	5 to 100 µM	≥ 100 µM	–	–	–
CC1=C(c2nc(-c3ccc(C#N)cc3)cs2)C(c2cccc(OC(F)(F)F)c2)NC(=O)N1 (stereo not shown) [Example 62]	D (D < 10.0)	5 to 100 µM	≥ 100 µM	–	–	–
COc1ccc(C2NC(=O)NC(C)=C2c2nc(-c3ccc(C#N)cc3C)cs2)cn1 (stereo not shown) [Example 85]	B (B < 100.0-50.0)	< 1 µM	< 50 µM	–	–	–
CC1=C(c2nc(-c3ccc(F)cc3)cs2)C(Cc2ccc(C)cc2)NC(=O)N1 (stereo not shown) [Example 95]	D (D < 10.0)	> 100 µM	≥ 100 µM	–	–	–
CC1=C(c2nc(-c3ccc(C#N)cc3)cs2)C(c2ccc(N(C)C)cc2)NC(=O)N1 (stereo not shown) [Example 54]	C (C < 50.0 to 10.0)	5 to 100 µM	50 to 100 µM	–	–	–
CC1=C(c2nc(-c3ccc(C#N)cc3)cs2)C(Cc2ccc(C)cc2)NC(=O)N1 (stereo not shown) [Example 94]	C (C < 50.0 to 10.0)	1 to 5 µM	50 to 100 µM	–	–	–
